Measured values taken from article PMC7988117, “OMN6 a novel bioengineered peptide for the treatment of multidrug resistant Gram negative bacteria” (Scientific Reports, 2021).
Ends that are not written are not given here.

Columns and labels:
Acinetobacter baumannii = test: VITEK 2 antimicrobial sensitivity characterization; assay type: cell-based; details: VITEK 2 system, CLSI ranges
Protocol: (§1) This experiment was conducted by Omnix Medical, by JMI Laboratories (North Liberty, IA, USA) and by Aptuit (Verona) S.r.l. (Italy), an Evotec Company. All studies were performed according to Clinical and Laboratory Standards Institute guidelines[30] for the application of the broth microdilution method. Reference strains from American Type Culture Collection (ATCC) and clinical isolates from the Evotec EvostrAIn and the JMI Laboratories SENTRY surveillance program culture collections (Acinetobacter baumannii: ACC 00445, ACC 00527, ACC 00535, ATCC 17978, ATCC 19606, ATCC BAA-1793, ACC 01076, ACC 01077, NCTC 13420, JMI #1088100 and JMI #1001007; Klebsiella pneumoniae: ATCC 43816 and ATCC BAA-1705; Escherichia coli: ACC 01001 and ATCC 25922; Staphylococcus aureus: ATCC 29213, ATCC BAA-44 and ATCC 33591; Bacillus cereus: ATCC 14579; Enterococcus faecalis: ATCC 29212; Enterococcus faecium: ATCC BAA-2319) were used. The antimicrobial activity of OMN6 was determined by 12 serial two-fold dilutions in water of the 100-fold highest compound solution; 1 µL of each well was transferred into 96 microtiter plates (final concentration: 256–0.12 µg/mL). In most strains, same procedure was used to determine the colistin antimicrobial activity (final concentration: 32–0.015 µg/mL). Bacterial strains were sub-cultured on the agar plates and incubated for 18–24 h at 35 ± 2 °C in ambient air. Following incubation, the inoculum was prepared from isolated colonies and adjusted to 0.5 McFarland turbidity standard (1 to 2 × 10^8 colony-forming units/mL) in 0.9% saline. Bacterial suspension was then diluted 1:200 in Muller-Hinton broth (from BD; Becton, Dickinson and Company, Franklin Lakes, NJ, USA) and within 15 min 100 µL/well were dispensed. Growth-control wells and sterility-check wells (uninoculated well) were present in each plate. Plates were incubated for 18–24 h at 35 ± 2 °C in ambient air. […] The antimicrobial activity to other antibiotics on most bacterial strains was determined by Evotec using the antimicrobial sensitive test from the VITEK 2 automated microbiology system (bioMérieux SA, Marcy l'Etoile, France; data presented in Table S1), or by ATCC according to CLSI (Clinical and Laboratory Standards Institute) guidelines[30]
(§2) Table S1. Supplementary information about the resistance pattern of 14 bacterial strains used in the Minimum Inhibitory Concentration study presented in Table 1. The resistance pattern of the different bacterial isolates was characterized by broth microdilution studies (for colistin) or with the VITEK 2 system (for the other antibiotics).

Escherichia coli = test: VITEK 2 antimicrobial sensitivity characterization; assay type: cell-based; details: VITEK 2 system, CLSI ranges
Protocol: as §1, §2

Klebsiella pneumoniae = test: VITEK 2 antimicrobial sensitivity characterization; assay type: cell-based; details: VITEK 2 system, CLSI ranges
Protocol: as §1, §2

A. baumannii BAA-1793 = details: determined by ATCC according to CLSI guidelines, ref ATCC; cited from earlier work; also: key: S, sensitive; I, intermediate; R, resistant
Source text: Supplement 41598_2021_86155_MOESM1_ESM.docx, table 3: Table S3. Supplementary information about the resistance pattern of the bacterial strain A. baumannii BAA-1793 used in the Minimum Inhibitory Concentration study presented in Table 1.

HEK293T cells = assay type: cell-based
Protocol: HEK-293T17 cells (ATCC CRL-1573) were purchased from ATCC and cultured to 80% confluency according to the ATCC culture method, using high-glucose and L-Glutamine Dulbecco's Modified Eagle Medium (DMEM) medium (ATCC catalog number 30-2002) supplemented with 10% fetal bovine serum and 1% Penicillin–Streptomycin solution (all from Biological Industries). For the experiment purposes, 30,000 cells were transferred to a 96-well plate (experiment plate) in a final volume of 100 µL of medium. The experiment plate was incubated at 5% CO2 and 37 °C for approximately 18 h. After 18 h, medium was discarded, and cells were co-incubated with OMN6, Melittin (Sigma-Aldrich) or dimethyl sulfoxide (DMSO; MP Biomedical LLC, Solon, OH, USA) that were prepared in new medium at desired concentrations. The experiment plate was incubated at 5% CO2 and 37 °C for 24 h. Then, glutaraldehyde at a final concentration of 0.5% was added in all wells for 10 min for cell fixation. After washing the plate 3 times with DDW, the experiment plate was dried overnight. Then, cells were washed with 0.1 M Borate buffer (pH = 8.5) for 1 min. 100 µL Methylene Blue diluted in the same Borate buffer was added to all wells for 1 h. Wells were washed with DDW and plate was dried overnight. Color extraction was executed by adding 0.1 M HCl. After an incubation at 37 °C for 1 h, cell survival was determined via absorbance at 620 nm using a microplate reader.

Staphylococcus aureus = test: VITEK 2 antimicrobial sensitivity characterization; assay type: cell-based; details: VITEK 2 system, CLSI ranges; also: key: S, sensitive; I, intermediate; R, resistant
Protocol: as §1, §2

Proteinase-K = molecular target: T1, Proteinase-K (Parengyodontium album, UniProt P06873); test: Peptide stability to Proteinase-K (SDS-PAGE); assay type: in vitro ADME; details: 10 µg peptide with 5 or 20 ng Proteinase-K (0.16 or 0.66 µg/mL), 2 h, 37 °C; 15% acrylamide SDS-PAGE, Coomassie stain
T1 construct: purchased Sigma-Aldrich
Protocol: 10 µg of synthetic cecropin A (Genscript, Piscataway, NJ, USA), OMN6, or bovine serum albumin (BSA; Sigma-Aldrich, St. Louis, MO, USA) were incubated with 5 or 20 ng Proteinase-K (Sigma-Aldrich; final treatment concentration of 0.16 or 0.66 µg/mL respectively) for 2 h at 37 °C, and separated on a 15% acrylamide gel (Bio-Rad, Hercules, CA, USA) by SDS-PAGE. The gel was then stained with Coomassie dye and excess color was removed over-night.

T1 sequence (P06873 106-384): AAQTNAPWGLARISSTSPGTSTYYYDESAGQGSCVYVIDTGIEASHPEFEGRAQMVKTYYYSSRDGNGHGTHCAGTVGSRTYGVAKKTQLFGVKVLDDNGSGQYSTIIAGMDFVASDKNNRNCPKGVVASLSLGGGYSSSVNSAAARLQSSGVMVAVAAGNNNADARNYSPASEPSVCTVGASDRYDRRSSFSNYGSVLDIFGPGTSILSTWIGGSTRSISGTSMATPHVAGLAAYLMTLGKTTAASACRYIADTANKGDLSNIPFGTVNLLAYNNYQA

Compound	VITEK characterization (resistance range) (Acinetobacter baumannii; A. baumannii ACC 00445)	VITEK characterization (resistance range) (Acinetobacter baumannii; A. baumannii ACC 00527)	VITEK characterization (resistance range) (Acinetobacter baumannii; A. baumannii ACC 00535)	VITEK characterization (resistance range) (Acinetobacter baumannii; A. baumannii ATCC 17978)	VITEK characterization (resistance range) (Acinetobacter baumannii; A. baumannii ATCC 19606)	VITEK characterization (resistance range) (Escherichia coli; E. coli ACC 01001)	VITEK characterization (resistance range) (Escherichia coli; E. coli ATCC 25922)	VITEK characterization (resistance range) (Klebsiella pneumoniae; K. pneumoniae ATCC 43816)	VITEK characterization (resistance range) (Klebsiella pneumoniae; K. pneumoniae ATCC BAA-1705)	Resistance pattern (A. baumannii BAA-1793)	Cytotoxicity on HEK293T cells (HEK293T cells)	VITEK characterization (resistance range) (Acinetobacter baumannii; A. baumannii ACC 01076)	VITEK characterization (resistance range) (Acinetobacter baumannii; A. baumannii ACC 01077)	VITEK characterization (resistance range) (Acinetobacter baumannii; A. baumannii NCTC 13420)	VITEK characterization (resistance range) (Staphylococcus aureus; S. aureus ATCC 29213)	VITEK characterization (resistance range) (Staphylococcus aureus; S. aureus ATCC 33591)	Stability after exposure to Proteinase-K (Proteinase-K)
CC(C)(O/N=C(\C(=O)N[C@@H]1C(=O)N2C(C(=O)[O-])=C(C[n+]3ccccc3)CS[C@H]12)c1csc(N)n1)C(=O)O [CAZ, ceftazidime]	R	R	R	S	I	S	S	S	R	R							
CO/N=C(\C(=O)N[C@@H]1C(=O)N2C(C(=O)O)=C(COC(C)=O)CS[C@H]12)c1csc(N)n1 [CTX, cefotaxime]	R	R	R	S	I	S	S	S	R	R							
C[S+](C)[O-] [DMSO, dimethyl sulfoxide]											> 90%						
C[C@@H](O)[C@H]1C(=O)N2C(C(=O)O)=C(SCCN=CN)C[C@H]12 [IMP, imipenem]	R	R	I	S	S	S	S	S	R	R		R	R	I	S	R	
KWKLFKKIEKVGQNIRDGIIKAGPAVAVVGQATQIAK-NH2 [Cecropin A]																	major degradation
